Earlier results on two compounds are cited in US10980856B2, “Composition and method for treating plantar fasciitis in humans” (priority 2017, dated 2021).

Series [1] relates to monocytes.
For series [2], the system named is human peripheral blood monocytes. Conditions: after 40 hours.
Series [3] relates to Balb/c mice injected with histamine. To be noted: applied immediately after histamine injection.

Consider `CC1=CC[C@@H](C(C)(C)O)CC1` [a-terpineol], for which the “superoxide production by agonist-stimulated monocytes” value in series [1] was “suppress”.

As to `CC1=CCC(O)(C(C)C)CC1` (stereo not shown) [terpinen-4-ol], in series [1], the “superoxide production by agonist-stimulated monocytes” value is “suppress”. Also, in series [2], the “inhibition of lipopolysaccharide-induced production of IL-10” value was 50%, the “inhibition of lipopolysaccharide-induced production of TNF-α” value is on record as 50%, the “inhibition of lipopolysaccharide-induced production of interleukin-1b (IL-1b)” value is given as 50% and the “inhibition of lipopolysaccharide-induced production of prostaglandin E2” value is 30%. The histamine-induced skin edema result in series [3] was “reduced”.
